Values of other authors as cited in patent US20100227930A1 (priority 2009, published 2010).

Assays:
algae = details: duration not given
fish = details: in vivo
[1] = compared with the 2:1:1 blend of three quaternary ammonium compounds
[2] = species not given
rainbow trout = details: in vivo

Q: Which results are given for O=C([O-])CC(NC(CC(=O)[O-])C(=O)[O-])C(=O)[O-].[Na+].[Na+].[Na+].[Na+] (stereo not drawn) [IDS, iminodisuccinate tetrasodium salt]?
A: EC50 Algae (algae): 94.5 mg/L; acute aquatic toxicity fish (fish): 82.6 mg/L; EC0 Daphnia Magna (Daphnia magna; in vivo): 84 mg/L; DL50 oral rat acute toxicity: over 2,000 mg/kg

Q: With CCCCCCCCCC[N+](C)(C)CCCCCCCCCC.[Cl-] [didecyl dimethyl ammonium chloride] as the compound, how does the water solubility [1] read?
A: poorer water solubility

Q: With COC(C)COC(C)CO (stereo not drawn) [Dipropylene glycol methyl ether] as the compound, how does the aquatic acute toxicity [2] read?
A: > 100 mg/L

Q: Which “EC50 Algae” value (algae) does the source give for O=C([O-])CCC(C(=O)[O-])N(CC(=O)[O-])CC(=O)[O-].[Na+].[Na+].[Na+].[Na+] (stereo not drawn) [Dissolvine GL, Glutamic acid, N,N Diacetic acid and their Tetrasodium salts] here?
A: > 100 mg/L

Q: What about the “EC50 Daphnia Magna” value (Daphnia magna; duration not given) of the same compound?
A: > 100 mg/L

Q: And the “EC50 fish (rainbow trout)” value (rainbow trout)?
A: > 100 mg/L
